This is an account of results in patent publication US20020111532A1, “Tris(hydroxymethyl)phosphino compounds as tissue crosslinking agents” (priority 2000, published 2002).

This data set can be described thus: Shrinkage Temperature Assay (differential scanning calorimetric analysis). It is filed as physicochemical. The note with it: bovine pericardium crosslinked overnight at room temperature; THPP 10 mg/mL in PBS or 0.25% glutaraldehyde.

Description: Tissue Crosslinking: Bovine pericardium tissue was cut into ˜1 cm^2 samples and rinsed in ˜1 L ultrafiltered H2O for about 30 min with stirring. The samples were then rinsed in PBS for an additional 30 min at room temperature with shaking.
Samples were left in solution overnight at room temperature. Samples were then rinsed 5×30 min in ˜200 mL PBS each rinse, and then either tested immediately or stored in 0.01 M HEPES with 40% isopropyl alcohol until testing.
Shrinkage Temperature Assay: The shrinkage temperature of some crosslinked samples was determined using standard differential scanning calorimetric analysis. Briefly, 2-10 mg of tissue was heated at 10° C. increments under nitrogen. Typically, an endotherm is seen in the range of 60° C.-90° C., and this endotherm is attributed to a shrinkage transition.

With `O=CCCCC=O` [Glutaraldehyde, glutaraldehyde], the “Shrink Onset Temperature” value was 86.04 °C.
